{"source": "a melting point compilation (Tetko et al.; mined from patent text by program, amines drawn as free bases though some values may be those of a salt)", "data": [{"units": {"melting point": "°C"}, "values": [{"smiles": "O=S(=O)(NCCCCC1Cc2ccccc2C1)c1ccc(Cl)cc1", "melting point": 77}, {"smiles": "O=C1CCCc2sc(CCN3CCC(c4csc5cc(F)ccc45)CC3)cc2N1", "melting point": "191 to 193"}, {"smiles": "Fc1cccc(CSc2nnc(-c3ncnc4[nH]ccc34)o2)c1", "melting point": "182 to 183"}, {"smiles": "COc1cc(C=CC(=O)Nc2cnc3ccc(C)cc3c2-c2ccccc2C)cc(OC)c1OC(C)=O", "melting point": "242 to 243"}, {"smiles": "CC(=O)NS(=O)(=O)c1ccc(N2CCN(CC[C@@H]3OCCc4ccccc43)CC2)cc1", "melting point": "160 to 161"}, {"smiles": "CCOC(=O)c1cn(C)c2cnc3cc(F)c(N4CCC[C@H]4CNc4ccccc4)cc3c2c1=O", "melting point": 170}, {"smiles": "Cc1ccc(-c2cc(C(=O)O)nn2Cc2ccc(C)c(Cl)c2)cc1", "melting point": 108}, {"smiles": "CC(C)(C)OC(=O)N[C@H]1COc2ccccc2NC1=O", "melting point": "202 to 203"}, {"smiles": "Cn1ccc2c(NC(=O)c3ccccc3)cccc21", "melting point": 160}, {"smiles": "NC(=S)c1ncn2c1[C@@H]1CCCN1C(=O)c1c(Cl)cccc1-2", "melting point": "247 to 248"}, {"smiles": "O=C(NC/C=C\\COc1cc(CN2CCCCC2)ccn1)c1ccc[nH]1", "melting point": "136 to 137"}, {"smiles": "CCCCc1nnc2ccccc2c1Cl", "melting point": 50}, {"smiles": "COc1cc2ncc(C#N)c(Cl)c2cc1[N+](=O)[O-]", "melting point": "214 to 215"}, {"smiles": "COc1cc2ncnc(N3CCN(C(=O)NCc4ccc(F)cc4)CC3)c2cc1OC", "melting point": "200 to 201"}, {"smiles": "O=C(Nc1ccc(-c2cnc(-c3cccc(NC(=O)c4ccccn4)c3)[nH]2)cc1)c1ccccn1", "melting point": "205 to 208"}, {"smiles": "CCOC(=O)c1cn(-c2cccc(COCc3ccccn3)c2)cn1", "melting point": "76.7 to 78.8"}, {"smiles": "Cc1c(CN(CCc2c(I)c3ccccc3n2C)C(=O)C(F)(F)F)ncn1S(=O)(=O)N(C)C", "melting point": "141 to 143"}, {"smiles": "COc1ccc(CCN(C)CCCCc2ccc(NC(=O)c3cccc4c(=O)c5cc(F)ccc5sc34)cc2)cc1OC", "melting point": 145}, {"smiles": "COCCOc1cc2ncnc(NC3=CC(=O)C(Oc4ccccc4C)=CC3=O)c2cc1OC", "melting point": "134 to 137"}, {"smiles": "CN1C(=O)N(c2ccc(Cl)cc2)S[N+]1(C)[O-]", "note": "(stereo unspecified)", "melting point": "83 to 85"}, {"smiles": "Oc1ccc(-c2c3ccccc3c(Cl)c3sc4ccccc4c23)cc1", "melting point": "193 to 195"}, {"smiles": "Cc1ccc(-c2ccc3c(c2)C=C(C(=O)Nc2ccc(CNc4cccnc4)cc2)CC3)cc1", "melting point": "212 to 214"}, {"smiles": "Cc1cc(C)c(Nc2nc(Nc3ccc(C#N)cc3)ncc2-c2ccccc2)c(C)c1", "melting point": "209 to 214"}, {"smiles": "CCOC(=NC(=O)c1ccccc1C(F)(F)F)c1ccccc1Cl", "melting point": "64 to 65"}, {"smiles": "CCCCCCCOc1ccc2c(c1)Nc1cccc(S(=O)(=O)N(C)C)c1S2", "melting point": "160 to 162"}, {"smiles": "NC(=O)CCC/C=C\\[C@@H]1C[C@@H](NS(=O)(=O)c2ccc(Cl)cc2)CN1S(=O)(=O)c1ccc(Cl)cc1", "melting point": "142 to 143"}, {"smiles": "COc1ccc(CNc2ccccc2C(=O)Nc2cccc(C(F)(F)F)c2C)cn1", "melting point": "134 to 135"}, {"smiles": "CCOc1cc(C(=O)OC)cc(OCC)c1N=Nc1ccccc1", "melting point": 92}, {"smiles": "CSc1ccc(/C=C2/C(C)=C(CCO)c3cc(F)ccc32)cc1", "melting point": "101 to 103"}, {"smiles": "CCCCCCCCCCCCCCCCCC(=O)NCC(O)CO", "note": "(single isomer, unassigned; (+))", "melting point": "112 to 114"}, {"smiles": "CCOC(=O)C(C)=CC=CC(C)=CC=CC=C(C)C=CC=C(C)C1OCC(C)(C)CO1", "melting point": 158}, {"smiles": "CCC1=C(c2cccc(F)c2)C(=O)N(c2cccc(C(F)(F)F)c2)C1", "melting point": "77.5 to 79"}, {"smiles": "COc1ccc2cc(C(C)C(=O)OCc3ccc(OC(=O)OCCC(C)(C)C)cc3)ccc2c1", "note": "(stereo unspecified)", "melting point": "63 to 64"}, {"smiles": "Clc1c(I)c(Cl)c(I)c(Cl)c1I", "melting point": "> 300"}, {"smiles": "CSC(=Nc1ccc(Cl)c(Cl)c1)NS(C)(=O)=O", "melting point": "122 to 125"}, {"smiles": "CS(=O)(=O)c1nc(Cl)c(Cc2ccccc2)c(N2CCCC2)n1", "melting point": "136 to 138"}, {"smiles": "CNCCc1cccc(N2C(=O)N(c3ccc(Cl)cc3Cl)Cc3cnc(Nc4ccccc4)nc32)c1", "melting point": "120 to 122"}, {"smiles": "COC(=O)c1ccccc1C=NC(C)(C(N)=O)C(C)C", "note": "(stereo unspecified)", "melting point": "79 to 80.5"}, {"smiles": "CCn1c(C)nc2nc(-c3ccccc3)c(-c3ccccc3)nc21", "melting point": "178 to 180"}, {"smiles": "CCOC(=O)CC(=O)C=Cc1ccc(OC)cc1", "melting point": 69}, {"smiles": "CCCCCN1C(=O)C2(COc3cc4c(cc32)OCO4)c2c(C#N)cccc21", "note": "(stereo unspecified)", "melting point": "128 to 129"}, {"smiles": "Nc1nc(N)nc(-c2ccc3c(c2)OC(F)(F)C(F)(F)O3)n1", "melting point": "176 to 179"}, {"smiles": "Nc1c(F)c(N2CC(n3cncn3)C2)c(F)c2c1c(=O)c(C(=O)O)cn2C1CC1", "melting point": "293 to 295"}, {"smiles": "Cc1sc(S(=O)(=O)NC(C)(C)CO)cc1NC(=O)c1cnn2c(C(F)F)cc(-c3ccc(C(F)(F)F)cc3)nc12", "melting point": 180}, {"smiles": "CCOc1nc(CCO)nc(N2CCc3ccccc3CC2)c1C#N", "melting point": "108 to 111"}, {"smiles": "CC(C)(C)NC(=NC#N)Nc1cc(F)cc(Cl)c1", "melting point": "156 to 157"}, {"smiles": "CC(=O)NCC(C)(C)c1ccc2nc(-c3ccc(C)cc3)[nH]c2c1", "melting point": "230 to 232"}, {"smiles": "CC1C(=O)N(Oc2ccc(F)cc2F)Cc2ccc(NC3CCOCC3)nc21", "note": "(stereo unspecified)", "melting point": "238 to 239"}, {"smiles": "CCCc1nc(I)c(CO)[nH]1", "melting point": "169 to 170"}, {"smiles": "CC(=O)Nc1cc2c3c(cccc3c1N1CCCC1)C(=O)N(O)C2=O", "melting point": "280 to 284"}, {"smiles": "CCCCCCCNC(=O)Nc1ccccc1C(=O)NC1CCN(Cc2ccccc2)CC1", "melting point": 134}]}]}
